Measurements reported in the Kinase Knowledgebase extract (Sharma et al. 2016).

The compounds below were run against CDK2 (UniProt P24941) (assay: Enzyme Assay).

Row | IC50 [µM] | SMILES
1 | < 50 | CC(C)(C)c1cnc(CSc2cnc(Nc3ccccn3)s2)o1
2 | < 50 | CCc1cnc(CSc2cnc(NC(=O)c3ccccc3)s2)o1
3 | < 50 | CC(=O)Nc1ncc(SCc2ncc(C(C)(C)C)o2)s1
4 | < 50 | CC(C)(C)c1cnc(CSc2cnc(Nc3ccc(S(=O)(=O)NCCO)cc3)s2)o1
5 | < 50 | CCc1cnc(CSc2cnc(NC(C)=O)s2)o1
6 | < 50 | CC(C)(C)c1cnc(CSc2cnc(Nc3cccc(CO)c3)s2)o1
7 | < 50 | CC(C)(C)C(=O)Cc1ncc(SCc2ncc(C(C)(C)C)o2)s1
8 | < 50 | CC(C)(C)c1cnc(CSc2cnc(NC(=NC#N)Nc3c(F)cccc3F)s2)o1
9 | < 50 | CC(C)(C)c1cnc(CSc2cnc(Nc3ccncn3)s2)o1
10 | < 50 | CC(C)(C)c1cnc(CSc2cnc(Nc3ccc(S(N)(=O)=O)cc3)s2)o1
11 | < 50 | CC(C)(CO)CNCc1ccc(Nc2ncc(SCc3ncc(C(C)(C)C)o3)s2)nc1
12 | < 50 | CC(=O)Nc1ncc(SC(F)c2ncc(C(C)C)o2)s1 (centres undefined)
13 | < 50 | CC(=O)Nc1ncc(SCc2nc(C)c(C)o2)s1
14 | < 50 | CCc1coc(CSc2cnc(NC(C)O)s2)n1 (centres undefined)
